Measured values published in ChEMBL document CHEMBL1201861, “Genomics of Drug Sensitity in Cancer screening data, Wellcome Trust Sanger Institute”.

How the values were obtained:
Experiment in all cases: cells
[1] = test system: COR-L88; type: functional, cell-based, Homo sapiens; settings: Homo sapiens, COR-L88;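 note: growth inhibition of COR-L88 cells, read out with a cell viability assay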
Description: SANGER: Inhibition of human COR-L88 cell growth in a cell viability assay.

[2] = test system: CW-2; type: functional, cell-based, Homo sapiens; settings: Homo sapiens, CW-2;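 note: growth inhibition of CW-2 cells, read out by a cell viability assay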
Description: SANGER: Inhibition of human CW-2 cell growth in a cell viability assay.

[3] = test system: DJM-1; type: functional, cell-based, Homo sapiens; settings: Homo sapiens, DJM-1;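 note: growth inhibition of human DJM-1 cells, read out by a cell viability assay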
Description: SANGER: Inhibition of human DJM-1 cell growth in a cell viability assay.

[4] = test system: EKVX; type: functional, cell-based, Homo sapiens; settings: Homo sapiens, EKVX;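 note: growth inhibition of human EKVX cells, read out with a cell viability assay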
Description: SANGER: Inhibition of human EKVX cell growth in a cell viability assay.

[5] = test system: ES5; type: functional, cell-based, Homo sapiens; settings: Homo sapiens, ES5;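 note: growth inhibition of human ES5 cells, read out by a cell viability assay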
Description: SANGER: Inhibition of human ES5 cell growth in a cell viability assay.

[6] = test system: ES8; type: functional, cell-based, Homo sapiens; settings: Homo sapiens, ES8;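 note: growth inhibition of human ES8 cells, read out with a cell viability assay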
Description: SANGER: Inhibition of human ES8 cell growth in a cell viability assay.

[7] = test system: EW-16; type: functional, cell-based, Homo sapiens; settings: Homo sapiens, EW-16;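 note: growth inhibition of human EW-16 cells, read out as cell viability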
Description: SANGER: Inhibition of human EW-16 cell growth in a cell viability assay.

[8] = test system: GI-1; type: functional, cell-based, Homo sapiens; settings: Homo sapiens, GI-1;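 note: growth inhibition of human GI-1 cells, measured with a cell viability readout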
Description: SANGER: Inhibition of human GI-1 cell growth in a cell viability assay.

[9] = test system: HCC1187; type: functional, cell-based, Homo sapiens; settings: Homo sapiens, HCC1187;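 note: growth inhibition of HCC1187 cells, read out with a cell viability assay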
Description: SANGER: Inhibition of human HCC1187 cell growth in a cell viability assay.

[10] = test system: HCE-4; type: functional, cell-based, Homo sapiens; settings: Homo sapiens, HCE-4;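 note: cell viability assay measuring inhibition of growth in the human HCE-4 cell line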
Description: SANGER: Inhibition of human HCE-4 cell growth in a cell viability assay.

[11] = test system: HD-MY-Z; type: functional, cell-based, Homo sapiens; settings: Homo sapiens, HD-MY-Z;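 note: growth inhibition of HD-MY-Z cells, read out with a cell viability assay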
Description: SANGER: Inhibition of human HD-MY-Z cell growth in a cell viability assay.

[12] = test system: HL-60; type: functional, cell-based, Homo sapiens; settings: Homo sapiens, HL-60;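 note: growth inhibition of human HL-60 cells, read out with a cell viability assay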
Description: SANGER: Inhibition of human HL-60 cell growth in a cell viability assay.

[13] = test system: IST-MES1; type: functional, cell-based, Homo sapiens; settings: Homo sapiens, IST-MES1;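 note: growth inhibition of IST-MES1 cells, measured with a cell viability assay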
Description: SANGER: Inhibition of human IST-MES1 cell growth in a cell viability assay.

[14] = test system: K562; type: functional, cell-based, Homo sapiens; settings: Homo sapiens, K562
Description: SANGER: Inhibition of human K-562 cell growth in a cell viability assay.

[15] = test system: KE-37; type: functional, cell-based, Homo sapiens; settings: Homo sapiens, KE-37;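 note: growth inhibition of KE-37 cells, read out with a cell viability assay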
Description: SANGER: Inhibition of human KE-37 cell growth in a cell viability assay.

[16] = test system: KG-1; type: functional, cell-based, Homo sapiens; settings: Homo sapiens, KG-1;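 note: growth inhibition of KG-1 cells, read out by a cell viability assay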
Description: SANGER: Inhibition of human KG-1 cell growth in a cell viability assay.

[17] = test system: KINGS-1; type: functional, cell-based, Homo sapiens; settings: Homo sapiens, KINGS-1;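 note: cell viability assay measuring suppression of KINGS-1 cell growth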
Description: SANGER: Inhibition of human KINGS-1 cell growth in a cell viability assay.

[18] = test system: KM-H2; type: functional, cell-based, Homo sapiens; settings: Homo sapiens, KM-H2;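 note: growth inhibition of KM-H2 cells, read out by a cell viability assay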
Description: SANGER: Inhibition of human KM-H2 cell growth in a cell viability assay.

[19] = test system: KS-1; type: functional, cell-based, Homo sapiens; settings: Homo sapiens, KS-1;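 note: growth inhibition of KS-1 cells, read out with a cell viability assay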
Description: SANGER: Inhibition of human KS-1 cell growth in a cell viability assay.

[20] = test system: KURAMOCHI; type: functional, cell-based, Homo sapiens; settings: Homo sapiens, KURAMOCHI;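 note: growth inhibition of KURAMOCHI cells, read out with a cell viability assay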
Description: SANGER: Inhibition of human KURAMOCHI cell growth in a cell viability assay.

[21] = test system: LB2241-RCC; type: functional, cell-based, Homo sapiens; settings: Homo sapiens, LB2241-RCC;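 note: cell viability assay measuring how strongly the cultured human renal carcinoma line is prevented from growing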
Description: SANGER: Inhibition of human LB2241-RCC cell growth in a cell viability assay.

[22] = test system: LB373-MEL-D; type: functional, cell-based, Homo sapiens; settings: Homo sapiens, LB373-MEL-D;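 note: growth inhibition of the cell line, read out in a cell viability assay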
Description: SANGER: Inhibition of human LB373-MEL-D cell growth in a cell viability assay.

[23] = test system: LU-134-A; type: functional, cell-based, Homo sapiens; settings: Homo sapiens, LU-134-A
Description: SANGER: Inhibition of human LU-134-A cell growth in a cell viability assay.

[24] = test system: LU-139; type: functional, cell-based, Homo sapiens; settings: Homo sapiens, LU-139
Description: SANGER: Inhibition of human LU-139 cell growth in a cell viability assay.

[25] = test system: MC116; type: functional, cell-based, Homo sapiens; settings: Homo sapiens, MC116;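 note: growth inhibition of MC116 cells, read out with a cell viability assay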
Description: SANGER: Inhibition of human MC116 cell growth in a cell viability assay.

[26] = test system: MEG-01; type: functional, cell-based, Homo sapiens; settings: Homo sapiens, MEG-01;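 note: growth inhibition of MEG-01 cells, read out by a cell viability assay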
Description: SANGER: Inhibition of human MEG-01 cell growth in a cell viability assay.

[27] = test system: MLMA; type: functional, cell-based, Homo sapiens; settings: Homo sapiens, MLMA;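 note: growth inhibition of MLMA cells (human), determined through a cell viability readout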
Description: SANGER: Inhibition of human MLMA cell growth in a cell viability assay.

[28] = test system: MMAC-SF; type: functional, cell-based, Homo sapiens; settings: Homo sapiens, MMAC-SF;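 note: growth inhibition of human MMAC-SF cells, read out with a cell viability assay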
Description: SANGER: Inhibition of human MMAC-SF cell growth in a cell viability assay.

[29] = test system: MOLT-4; type: functional, cell-based, Homo sapiens; settings: Homo sapiens, MOLT-4;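 note: growth inhibition of MOLT-4 cells, determined with a cell viability readout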
Description: SANGER: Inhibition of human MOLT-4 cell growth in a cell viability assay.

[30] = test system: Mo; type: functional, cell-based, Homo sapiens; settings: Homo sapiens, Mo
Description: SANGER: Inhibition of human Mo-T cell growth in a cell viability assay.

[31] = test system: NCI-H1155; type: functional, cell-based, Homo sapiens; settings: Homo sapiens, NCI-H1155;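 note: cell growth inhibition measured by a viability assay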
Description: SANGER: Inhibition of human NCI-H1155 cell growth in a cell viability assay.

[32] = test system: NCI-H1770; type: functional, cell-based, Homo sapiens; settings: Homo sapiens, NCI-H1770;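 note: growth inhibition of NCI-H1770 cells determined with a viability readout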
Description: SANGER: Inhibition of human NCI-H1770 cell growth in a cell viability assay.

[33] = test system: NCI-H1838; type: functional, cell-based, Homo sapiens; settings: Homo sapiens, NCI-H1838;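 note: growth inhibition of NCI-H1838 cells, determined with a cell viability readout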
Description: SANGER: Inhibition of human NCI-H1838 cell growth in a cell viability assay.

[34] = test system: NCI-H209; type: functional, cell-based, Homo sapiens; settings: Homo sapiens, NCI-H209;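 note: growth inhibition of human NCI-H209 cells, measured by a cell viability assay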
Description: SANGER: Inhibition of human NCI-H209 cell growth in a cell viability assay.

[35] = test system: NCI-H23; type: functional, cell-based, Homo sapiens; settings: Homo sapiens, NCI-H23;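 note: cell viability assay measuring growth inhibition of NCI-H23 cells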
Description: SANGER: Inhibition of human NCI-H23 cell growth in a cell viability assay.

[36] = test system: NOS-1; type: functional, cell-based, Homo sapiens; settings: Homo sapiens, NOS-1;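 note: growth inhibition of the human NOS-1 cell line, read out with a cell viability assay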
Description: SANGER: Inhibition of human NOS-1 cell growth in a cell viability assay.

[37] = test system: NTERA-2-cl-D1; type: functional, cell-based, Homo sapiens; settings: Homo sapiens, NTERA-2-cl-D1;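 note: inhibition of cell growth, measured with a cell viability assay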
Description: SANGER: Inhibition of human NTERA-S-cl-D1 cell growth in a cell viability assay.

[38] = test system: OS-RC-2; type: functional, cell-based, Homo sapiens; settings: Homo sapiens, OS-RC-2;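 note: growth inhibition of human OS-RC-2 cells, measured by a cell viability assay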
Description: SANGER: Inhibition of human OS-RC-2 cell growth in a cell viability assay.

[39] = test system: PSN1; type: functional, cell-based, Homo sapiens; settings: Homo sapiens, PSN1;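 note: suppression of growth of human PSN1 cells, read out by a cell viability assay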
Description: SANGER: Inhibition of human PSN1 cell growth in a cell viability assay.

[40] = test system: RCC10RGB; type: functional, cell-based, Homo sapiens; settings: Homo sapiens, RCC10RGB;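 note: growth inhibition of human RCC10RGB cells, read out by a cell viability assay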
Description: SANGER: Inhibition of human RCC10RGB cell growth in a cell viability assay.

[41] = test system: RKO; type: functional, cell-based, Homo sapiens; settings: Homo sapiens, RKO;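 note: growth inhibition of human RKO cells, read out with a cell viability assay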
Description: SANGER: Inhibition of human RKO cell growth in a cell viability assay.

[42] = test system: SF-539; type: functional, cell-based, Homo sapiens; settings: Homo sapiens, SF-539;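 note: Read-out is a cell viability assay, with IC50 reflecting inhibition of cell growth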
Description: SANGER: Inhibition of human SF539 cell growth in a cell viability assay.

[43] = test system: SHP77; type: functional, cell-based, Homo sapiens, SHP-77; settings: Homo sapiens, SHP77;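 note: growth inhibition of human SHP-77 cells measured by a cell viability assay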
Description: SANGER: Inhibition of human SHP-77 cell growth in a cell viability assay.

[44] = test system: SW 954; type: functional, cell-based, Homo sapiens; settings: Homo sapiens, SW 954;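 note: growth inhibition of SW954 human cancer cells, read out as cell viability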
Description: SANGER: Inhibition of human SW954 cell growth in a cell viability assay.

[45] = test system: A388; type: functional, cell-based, Homo sapiens; settings: Homo sapiens, A388;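 note: growth inhibition of human A388 cells, read out with a cell viability assay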
Description: SANGER: Inhibition of human A388 cell growth in a cell viability assay.

[46] = test system: A4-Fuk; type: functional, cell-based, Homo sapiens; settings: Homo sapiens, A4-Fuk;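 note: growth inhibition of A4-Fuk cells, read out by a cell viability assay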
Description: SANGER: Inhibition of human A4-Fuk cell growth in a cell viability assay.

[47] = test system: TK-10; type: functional, cell-based, Homo sapiens; settings: Homo sapiens, TK-10;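 note: growth inhibition of TK-10 cells, read out in a cell viability assay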
Description: SANGER: Inhibition of human TK10 cell growth in a cell viability assay.

[48] = test system: no-10; type: functional, cell-based, Homo sapiens; settings: Homo sapiens;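 note: growth inhibition of no-10 cells, read out with a cell viability assay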
Description: SANGER: Inhibition of human no-10 cell growth in a cell viability assay.

[49] = test system: COLO-320-HSR; type: functional, cell-based, Homo sapiens; settings: Homo sapiens, COLO-320-HSR;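 note: growth inhibition of COLO-320-HSR cells, determined with a cell viability assay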
Description: SANGER: Inhibition of human COLO-320-HSR cell growth in a cell viability assay.

Work on `Cc1ccc(-c2c(C(=O)CCl)n(CCCO)c3ncnc(N)c23)cc1` yielded an IC50 [1] greater than 4 µM, an IC50 [2] greater than 4 µM and an IC50 [3] greater than 4 µM. It also gave an IC50 [4] greater than 4 µM, an IC50 [5] greater than 4 µM and an IC50 [6] greater than 4 µM. It also gave an IC50 [7] greater than 4 µM, an IC50 [8] of 2.7 µM and an IC50 [9] greater than 4 µM. For the same compound, the IC50 [10] was greater than 4 µM, the IC50 [11] was 2.5 µM and the IC50 [12] was greater than 4 µM. It also gave an IC50 [13] greater than 4 µM, an IC50 [14] greater than 4 µM and an IC50 [15] greater than 4 µM. For the same compound, the IC50 [16] was greater than 4 µM, the IC50 [17] was greater than 4 µM and the IC50 [18] was greater than 4 µM. For the same compound, the IC50 [19] was 1.05 µM, the IC50 [20] was greater than 4 µM and the IC50 [21] was 0.699 µM. The IC50 [22] was greater than 4 µM, the IC50 [23] was greater than 4 µM and the IC50 [24] was greater than 4 µM. It also gave an IC50 [25] greater than 4 µM, an IC50 [26] greater than 4 µM and an IC50 [27] greater than 4 µM. For the same compound, the IC50 [28] was greater than 4 µM, the IC50 [29] was greater than 4 µM and the IC50 [30] was greater than 4 µM. It also gave an IC50 [31] greater than 4 µM, an IC50 [32] greater than 4 µM and an IC50 [33] greater than 4 µM. For the same compound, the IC50 [34] was greater than 4 µM, the IC50 [35] was greater than 4 µM and the IC50 [36] was greater than 4 µM. For the same compound, the IC50 [37] was greater than 4 µM, the IC50 [38] was greater than 4 µM and the IC50 [39] was 2.77 µM. The IC50 [40] was greater than 4 µM, the IC50 [41] was greater than 4 µM and the IC50 [42] was greater than 4 µM. For the same compound, the IC50 [43] was greater than 4 µM, the IC50 [44] was greater than 4 µM and the IC50 [45] was 2.19 µM. It also gave an IC50 [46] greater than 4 µM, an IC50 [47] of 1.95 µM and an IC50 [48] greater than 4 µM. For the same compound, the IC50 [49] was greater than 4 µM.
`CO[C@H]1C[C@@H]2CC[C@@H](C)[C@@](O)(O2)C(=O)C(=O)N2CCCC[C@H]2C(=O)O[C@H]([C@H](C)C[C@@H]2CC[C@@H](OC(=O)C(C)(CO)CO)[C@H](OC)C2)CC(=O)[C@H](C)/C=C(\C)[C@@H](O)[C@@H](OC)C(=O)[C@H](C)C[C@H](C)/C=C/C=C/C=C/1C` [TEMSIROLIMUS] was tested, and the IC50 [1] was greater than 0.2 µM, the IC50 [2] was greater than 0.2 µM and the IC50 [3] was greater than 0.2 µM. The IC50 [4] was greater than 0.2 µM, the IC50 [5] was 0.0614 µM and the IC50 [6] was 0.00527 µM. It also gave an IC50 [7] of 0.0286 µM, an IC50 [8] of 0.107 µM and an IC50 [9] greater than 0.2 µM. The IC50 [10] was greater than 0.2 µM, the IC50 [11] was 0.0216 µM and the IC50 [12] was greater than 0.2 µM. For the same compound, the IC50 [13] was greater than 0.2 µM, the IC50 [14] was greater than 0.2 µM and the IC50 [15] was 0.0165 µM. The IC50 [16] was 0.0129 µM, the IC50 [17] was greater than 0.2 µM and the IC50 [18] was greater than 0.2 µM. The IC50 [19] was 0.0635 µM, the IC50 [20] was greater than 0.2 µM and the IC50 [21] was 0.0393 µM. The IC50 [22] was greater than 0.2 µM, the IC50 [23] was 0.0289 µM and the IC50 [24] was 0.0533 µM. It also gave an IC50 [25] of 0.0255 µM, an IC50 [26] of 0.0882 µM and an IC50 [27] of 0.00331 µM. The IC50 [28] was greater than 0.2 µM, the IC50 [29] was 0.00431 µM and the IC50 [30] was greater than 0.2 µM. The IC50 [31] was 0.0636 µM, the IC50 [32] was greater than 0.2 µM and the IC50 [33] was greater than 0.2 µM. The IC50 [34] was 0.153 µM, the IC50 [35] was greater than 0.2 µM and the IC50 [36] was greater than 0.2 µM. It also gave an IC50 [37] of 0.0207 µM, an IC50 [38] of 0.017 µM and an IC50 [39] greater than 0.2 µM. For the same compound, the IC50 [40] was greater than 0.2 µM, the IC50 [41] was 0.135 µM and the IC50 [42] was 0.121 µM. The IC50 [43] was greater than 0.2 µM, the IC50 [44] was greater than 0.2 µM and the IC50 [45] was greater than 0.2 µM. For the same compound, the IC50 [46] was 0.0818 µM, the IC50 [47] was greater than 0.2 µM and the IC50 [48] was greater than 0.2 µM. The IC50 [49] was greater than 0.2 µM.
